Assay results reported in patent US10213451B2, “Methods and compounds for modulating the secretion or expression of adhesion proteins or angiopoietins of cells” (PACIFIC ARROW LIMITED, priority 2004, dated 2019).

Tests used:
Format in all cases: cell-based, human
[1] = tested on: fibronectin expression in ES2 cells; assay: Microarray gene expression, Table 1
Experimental: (§1) Y/D is the ratio (in folds) of gene expression in cells treated with compound Y as compared with those of the no drug control (D),
(§2) YM/D is the ratio of gene expression in cells treated with compound YM (ACH-Y, Y without sugar moiety) compared with those of the no drug control (D)
(§3) Cell culture and drug-treatment.: ES2 cells were seeded in a T-25 flask with 4.5 million cells per flask for 24 hours. Cell culture was replaced with fresh medium with xanifolia-Y (Y) or DMSO no drug control (D) for 24 hours. Cells were then harvested for RNA isolation. Three experiments were done.
(§4) RNA extraction, labeling, hybridization, and data analysis. RNA was extracted from tumor cells using the Qiagen RNeasy Kit. RNA quality and quantity was checked by the Agilent BioAnalyzer and the NanoDrop® ND-1000 spectrophotometer respectively before further manipulation. The first and second cDNA strands were synthesized from 20 ng of total RNA using the Affymetrix T7 oligo(dT) primer protocol and kit for the two-cycle amplification. To produce amplified biotin-labeled-cRNA, the cDNA was […] by in vitro transcription using the MegaScript kit from Ambion. 15.0 μg of the labeled cRNA was fragmented and re-checked for concentration using the NanoDrop® ND-1000 spectrophotometer. A hybridization cocktail containing Affymetrix spike-in controls and fragmented labeled cRNA was loaded onto the Human U133 Plus 2.0 GeneChip® oligonucleotide array. The Affymetrix array (Affymetrix, Inc. Santa Clara, Calif.) is comprised of over 1,300,000 unique oligonucleotide features that represent greater than 38,500 well-substantiated human genes. The array was hybridized for 16 hours at 45° C. with rotation at 60 rpm then washed and stained with a strepavidin, R-phycoerythrin conjugate stain on the Affymetrix Fluidicis Station 450. Signal amplification was done using biotinylated antistreptavidin. The arrays were scanned using the GeneChip® 3000 confocal laser scanner with autoloader. The images were analyzed and quality control metrics recorded using Affymetrix GCOS software version 1.4. Lastly, the expression value for each gene was calculated using dChip PM-only model based or Plier algorithm.
(§5) Pairwise comparisons were made as follows: Treated vs. Control (Y vs. D), Modified Drug vs Control (YM/ACY-H vs. D) and Treated vs. Modified Drug (Y vs. YM/ACH-Y) Cel files analyzed using the Bioconductor package of R Statistical programming. Limma analysis generated a reasonable number of changing genes between the samples.
(§6) The raw data in the .CEL files were normalized by the GCRMA method (robust multi-array analysis). It is implemented in Bioconductor (http://www.bioconductor.org/). The raw signal intensity data were normalized, background corrected and summarized based on certain statistical models, and an expression value, in log 2-scale, is obtained per chip per probe set. Then the null hypothesis was tested that there's no significant changes in gene expression between the treatment pairs. This was done by LIMMA and is also implemented in Bioconductor. It uses empirical Bayes method to estimate the variance in gene expression. One comparison was made, namely, High Grade vs. Low Grade. The raw p-values were adjusted by the Benjamnin-Hochberg method for false discovery rate (FDR) control. All data sets contained a significant number of genes with a p-value less than 0.05, which is that the probability that a gene is NOT differential expressed (false positive) is 1:20.

[2] = tested on: integrin (vitronectin receptor) expression in ES2 cells; assay: Microarray gene expression, Table 2
Experimental: as §1, §2, §3, §4, §5
(§7) The raw data in the .CEL files were normalized by the GCRMA method (robust multi-array analysis). It is implemented in Bioconductor (http://www.bioconductor.org/). […]

[3] = tested on: CAM expression in ES2 cells; assay: Microarray gene expression, Table 4
Experimental: as §1, §2, §3, §4, §5, §6

[4] = tested on: myosin expression in ES2 cells; assay: Microarray gene expression, Table 7
Experimental: as §1, §2, §3, §4, §5, §6

[5] = tested on: tenascin-C expression in ES2 cells; assay: Microarray gene expression, Table 9; conditions: probe 201645_at
Experimental: as §1, §2, §3
(§8) RNA extraction, labeling, hybridization, and data analysis. RNA was extracted from tumor cells using the Qiagen RNeasy Kit. RNA quality and quantity was checked by the Agilent BioAnalyzer and the NanoDrop® ND-1000 spectrophotometer respectively before further manipulation. […] The images were analyzed and quality control metrics recorded using Affymetrix GCOS software version 1.4. Lastly, the expression value for each gene was calculated using dChip PM-only model based or Plier algorithm.
(§9) Pairwise comparisons were made as follows: Treated vs. Control (Y vs. D), Modified Drug vs Control (YM/ACY-H vs. D) and Treated vs. Modified Drug (Y vs. YM/ACH-Y) Cel files analyzed using the Bioconductor package of R Statistical programming. […]

[6] = tested on: heparin sulfate expression in ES2 cells; assay: Microarray gene expression, Table 10
Experimental: as §1, §2, §3, §4, §5, §6

[7] = tested on: CD54 expression in ES2 cells; assay: Microarray gene expression, Table 11; conditions: probe 202638_s_at
Experimental: as §1, §2, §3, §8, §9

[8] = tested on: angiopoietin expression in ES2 cells; assay: Microarray gene expression, Table 12
Experimental: as §1, §2, §3, §4, §5, §6

[9] = tested on: Glypican expression in ES2 cells; assay: Microarray gene expression, Table 13
Experimental: as §1, §2, §3, §4, §5, §7

[10] = tested on: thrombospondin in ES2 cells; assay: Microarray gene expression, Table 15
Experimental: as §1, §2, §3, §4, §5, §6

[11] = tested on: insulin-like growth factor binding protein expression in ES2 cells; assay: Microarray gene expression, Table 16
Experimental: as §1, §2, §3, §4, §5, §6

[12] = tested on: RAB3B, member RAS oncogene family protein expression in ES2 cells; assay: Microarray gene expression, Table 17
Experimental: as §1, §2, §3, §4, §5, §6

[13] = tested on: phosphatase, protein expression in ES2 cells; assay: Microarray gene expression, Table 19
Experimental: as §1, §2, §3, §4, §5, §6

[14] = tested on: Fibronectin secretion from lung carcinoma cells (H460); assay: Fibronectin secretion (Western blot), H460 cells; conditions: Homo sapiens, NCI-H460, H460 cells, 20 ug/ml

## C/C=C(/C)C(=O)O[C@H]1[C@H](OC(=O)/C(C)=C\C)[C@@]2(CO)C(CC1(C)C)C1=CCC3[C@@]4(C)CC[C@H](O)C(C)(C)C4CC[C@@]3(C)[C@]1(C)[C@@H](O)[C@H]2O (stereo partly shown) [ACH-Y]
[1]; probe 210495_x_at
  FN1 fibronectin 1, gene expression ratio to no drug control (D): −1.1 folds
[1]; probe 211719_x_at
  FN1 fibronectin 1, gene expression ratio to no drug control (D): −1.2 folds
[1]; probe 212464_s_at
  FN1 fibronectin 1, gene expression ratio to no drug control (D): −1.1 folds
[1]; probe 216442_x_at
  FN1 fibronectin 1, gene expression ratio to no drug control (D): −1.1 folds
[2]; probe 202351_at
  ITGAV integrin, alpha V (vitronectin receptor), gene expression ratio to no drug control (D): −1.3 folds
[2]; probe 236251_at
  ITGAV integrin, alpha V (vitronectin receptor), gene expression ratio to no drug control (D): −1.4 folds
[3]; probe 201951_at
  ALCAM activated leukocyte cell adhesion molecule, gene expression ratio to no drug control (D): −1.7 folds
[3]; probe 201952_at
  ALCAM activated leukocyte cell adhesion molecule, gene expression ratio to no drug control (D): −1.4 folds
[3]; probe 206667_s_at
  SCAMP1 secretory carrier membrane protein 1, gene expression ratio to no drug control (D): −1.5 folds
[3]; probe 212416_at
  SCAMP1 secretory carrier membrane protein 1, gene expression ratio to no drug control (D): −1.1 folds
[3]; probe 212417_at
  SCAMP1 secretory carrier membrane protein 1, gene expression ratio to no drug control (D): −1.4 folds
[3]; probe 212425_at
  SCAMP1 secretory carrier membrane protein 1, gene expression ratio to no drug control (D): −1.5 folds
[3]; probe 228234_at
  TICAM2 toll-like receptor adaptor molecule 2, gene expression ratio to no drug control (D): −1.3 folds
[3]; probe 239431_at
  TICAM2 toll-like receptor adaptor molecule 2, gene expression ratio to no drug control (D): −1.3 folds
[3]; probe 240655_at
  ALCAM activated leukocyte cell adhesion molecule, gene expression ratio to no drug control (D): −1.3 folds
[3]; span over different probes of Table 4
  inhibiting ratio to the control, genes related to the adhesion molecule: −1.1 to −1.7 folds
[4]; probe 202555_s_at
  MYLK myosin, light polypeptide kinase, gene expression ratio to no drug control (D): −1.2 folds
[4]; probe 203215_s_at
  MYO6 myosin VI, gene expression ratio to no drug control (D): −1.6 folds
[4]; probe 204527_at
  MYO5A myosin VA, gene expression ratio to no drug control (D): −1.2 folds
[4]; probe 211926_s_at
  MYH9 myosin, heavy polypeptide 9, non-muscle, gene expression ratio to no drug control (D): −1.2 folds
[4]; probe 212338_at
  MYO1D myosin ID, gene expression ratio to no drug control (D): −2.1 folds
[4]; probe 212372_at
  MYH10 myosin, heavy polypeptide 10, non-muscle, gene expression ratio to no drug control (D): −1.4 folds
[4]; probe 224823_at
  MYLK myosin, light polypeptide kinase, gene expression ratio to no drug control (D): −1.4 folds
[4]; probe 225080_at
  MYO1C Myosin IC, gene expression ratio to no drug control (D): −1.4 folds
[4]; span over probes of Table 7
  expression ratio to the control, myosin family: −1.2 to −2.1 folds
[5]
  TNC Tenascin C (hexabrachion), gene expression ratio to no drug control (D): 1.0 folds
[6]; probe 201655_s_at
  HSPG2 heparan sulfate proteoglycan 2 (perlecan), gene expression ratio to no drug control (D): −1.3 folds
[6]; probe 203284_s_at
  HS2ST1 heparan sulfate 2-O-sulfotransferase 1, gene expression ratio to no drug control (D): −1.7 folds
[6]; probe 219403_s_at
  HPSE Heparanase, gene expression ratio to no drug control (D): −1.3 folds
[7]
  ICAM1 intercellular adhesion molecule 1 (CD54), gene expression ratio to no drug control (D): 2.3 folds
[8]; probe 205572_at
  ANGPT2 angiopoietin 2, gene expression ratio to no drug control (D): 1.4 folds
[8]; probe 205609_at
  ANGPT1 angiopoietin 1, gene expression ratio to no drug control (D): −1.2 folds
[8]; probe 211148_s_at
  ANGPT2 angiopoietin 2, gene expression ratio to no drug control (D): 1.4 folds
[8]; probe 221009_s_at
  ANGPTL4 angiopoietin-like 4, gene expression ratio to no drug control (D): −1.4 folds
[8]; probe 227533_at
  ANGPTL1 Angiopoietin-like 1, gene expression ratio to no drug control (D): −2.3 folds
[9]; probe 227059_at
  GPC6 Glypican 6, gene expression ratio to no drug control (D): −1.8 folds
[9]; probe 243865_x_at
  GPC6 Glypican 6, gene expression ratio to no drug control (D): −2.0 folds
[10]; probe 201108_s_at
  THBS1 thrombospondin 1, gene expression ratio to no drug control (D): −2.2 folds
[10]; probe 201109_s_at
  THBS1 thrombospondin 1, gene expression ratio to no drug control (D): −6.2 folds
[10]; probe 201110_s_at
  THBS1 thrombospondin 1, gene expression ratio to no drug control (D): −4.5 folds
[11]; probe 201163_s_at
  IGFBP7 insulin-like growth factor binding protein 7, gene expression ratio to no drug control (D): −2.7 folds
[11]; probe 201508_at
  IGFBP4 insulin-like growth factor binding protein 4, gene expression ratio to no drug control (D): −2.4 folds
[11]; probe 203851_at
  IGFBP6 insulin-like growth factor binding protein 6, gene expression ratio to no drug control (D): −1.8 folds
[11]; probe 205302_at
  IGFBP1 insulin-like growth factor binding protein 1, gene expression ratio to no drug control (D): −1.8 folds
[11]; probe 210095_s_at
  IGFBP3 insulin-like growth factor binding protein 3, gene expression ratio to no drug control (D): −3.5 folds
[11]; probe 212143_s_at
  IGFBP3 insulin-like growth factor binding protein 3, gene expression ratio to no drug control (D): −5.3 folds
[12]; probe 205924_at
  RAB3B, member RAS oncogene family, gene expression ratio to no drug control (D): −1.8 folds
[12]; probe 205925_s_at
  RAB3B, member RAS oncogene family, gene expression ratio to no drug control (D): −1.2 folds
[12]; probe 227123_at
  RAB3B, member RAS oncogene family, gene expression ratio to no drug control (D): −1.2 folds
[12]; probe 242629_at
  RAB3B, member RAS oncogene family, gene expression ratio to no drug control (D): −1.8 folds
[13]; probe 37028_at
  PPP1R15A protein phosphatase 1, regulatory (inhibitor) subunit 15A, gene expression ratio to no drug control (D): 5.6 folds
[13]; probe 202014_at
  PPP1R15A protein phosphatase 1, regulatory (inhibitor) subunit 15A, gene expression ratio to no drug control (D): 6.2 folds
[13]; probe 215501_s_at
  DUSP10 dual specificity phosphatase 10, gene expression ratio to no drug control (D): 7.1 folds
[13]; probe 221563_at
  DUSP10 dual specificity phosphatase 10, gene expression ratio to no drug control (D): 5.7 folds
[14]
  inhibition at 20 µg/mL: 28%
